Measurements taken from publication PMC7699649 (Communications Biology, 2020).
Several values for one entry are separate records, joined by “and”; a condition that tells them apart may be missing. Equal entries are not always repeated. Non-standard residues stand in square brackets, D forms with d. Residues, ends and D or L forms follow the SMILES beside them.

Legend:
TNFα = experiment: Murine EMRSA-15 lung infection model: BAL cytokine ELISA; type: in vivo, C57Bl6J mice; details: vancomycin or D-pleurocidin-KR i.v., 48 h
[1] = tested on: EMR Staphylococcus aureus-15 NCTC 13616; details: RPMI supplemented with 5% FBS (value in parentheses); twofold broth microdilution, 20 h 37 C, OD600; modal MIC, at least three biological replicates
Procedure: The antibacterial activity of the peptides was assessed through a modified twofold broth microdilution assay with modal MICs generated from at least three biological replicate experiments[20],[25]. The method broadly followed EUCAST methodology, with non-cation-adjusted Mueller Hinton or RPMI replacing cation-adjusted Mueller Hinton. Peptides and antibiotics were diluted in a twofold dilution in media down a 96 well plate. Bacteria were then added, back-diluted from an overnight culture, at a starting concentration of 5 × 10^5 CFU/ml. Plates were incubated, static at 37 C, for 20 h and the OD600 was determined using a Clariostar plate reader (BMG Labtech). […] Synergy was measured using standard microdilution checkerboard assays under the same conditions as the MICs[54]. Twofold dilution series of each peptide or antibiotic were prepared in separate 96 well plates and then combined into one before addition of bacteria. The growth/no growth interface was determined using the same definition as the MIC. The fractional inhibitory concentration was calculated from the most synergistic well on the plate for three independent repeats, and presented as the average +/− standard deviation. FIC is calculated as (MIC of compound A in combination with B/MIC of compound A alone) + (MIC of compound B in combination with A/MIC of compound B alone). MICs were determined on the same plates as the FICs to increase reproducibility.

HEK293 = type: cell-based, human; details: XTT, 24 h with peptide, OD475; Eagle's Minimum Essential Media, 10% FBS; average and standard error of three biological replicates
Procedure: HeLa and HEK293 cell lines were purchased from ECACC and cultured in Eagle’s Minimum Essential Media containing glutamine, supplemented with 10% FBS and 1X non-essential amino acids. A549 and Calu-3 cell lines were purchased from ATCC. […] Cytotoxicity was measured by incubating starter cultures of cells for 24 h in a 96 well plate, gently removing the supernatant and replacing it with dilutions of peptides and controls, incubating for a further 24 h and then staining of the cells with the second-generation tetrazolium dye, XTT.

EMRSA-15 = experiment: 1H HR-MAS NMR metabolomics of bacterial pellets; type: cell-based, Staphylococcus aureus; details: EMRSA-15 in MHB, sub-inhibitory challenge v unchallenged; fold change, 1H HR-MAS NMR of pellets
Procedure: S. aureus EMRSA-15 and P. aeruginosa RP73 were streaked on Mueller Hinton agar plates and RPMI (supplemented with 5% FBS) agar plates and incubated at 37 °C overnight or until single colonies formed. […] Cultures were incubated overnight at 37 °C without shaking and pelleted by centrifugation at 4 °C. The supernatant was removed and filtered separately for spent media analysis, the pellet was briefly washed three times with phosphate buffered saline (PBS). The pellets were frozen in liquid nitrogen and lyophilised overnight in an Alpha 1–2 LD plus freeze dryer (Martin Christ, Germany) and stored at −20 °C until required. Samples were transferred into HR-MAS inserts for use in 4 mm Bruker MAS rotor and resuspended in 30 μl of D2O containing 3-(Trimethylsilyl)propionic-2,2,3,3-D4 acid sodium salt (TMSP-2,2,3,3-D4). The removed supernatant was filtered through 0.2 μm filters and pH adjusted to within 0.3 pH units within the same sample set. The samples were supplemented with 10% D2O containing TMSP-2,2,3,3-D4 and loaded into 5.0 mm NMR tubes.
NMR spectra were collected at 600 MHz for ^1H on a Bruker Avance II spectrometer (Bruker Biospin, Coventry, UK) with a 4 mm HR-MAS probe at 310 K while spinning at 5 kHz. ^1H NMR spectra were acquired using a Carr-Purcell Meiboom-Gill pre-saturation (cpmgpr1d) pulse sequence with a spectrum width of 16.0 ppm and 9615 data points using 64 transients. Free induction decay was multiplied by an exponential function with 0.293 Hz line broadening. 2D ^1H–^1H correlation spectroscopy (COSY) and ^1H–^13C Heteronuclear Single Quantum Correlation (HSQC) experiments were performed on representative datasets using standard Bruker settings.
The spectra were Fourier transformed automatically using standard Bruker commands and manually phased and baseline corrected in Bruker TopSpin 4.0 (Bruker Biospin, Coventry, UK). Spectral pre-processing, cross-validation and multivariate analysis were carried out using the in-house programme developed by Dr Louic Vermeer and MVAPACK, an opensource Octave library for NMR metabolomic data processing and analysis. Pre-processing modifies NMR spectra and reduces the variances and influences which are not of interest and may interfere with data analysis, for example, residual water peak or noise and the TSP reference peak. Initially a principle component analysis was carried out to identify clustering spectra and potential outliers in the data, due to e.g. poor baseline. Data were then subject to probabilistic quotient normalisation before binning and alignment. Orthogonal Projections to Latent Structures Discriminant Analysis analyses were conducted to establish the quality of binary comparisons of the metabolomic data (Supplementary Table 4). […] The Mann–Whitney U test was used to compare means and associated p values were false discovery rate adjusted using the Benjamini-Hochberg method (α = 0.05). Box plots were generated using changes in normalised intensity for each metabolite and significant differences between challenges and controls were determined using a one-way ANOVA. Volcano plots and box plots were generated using in-house software developed for Jupyter Notepad using Python 3.7.0. Metabolites were assigned using the databanks: Chenomx NMR suite software (Chenomx Inc., Canada), Human Metabolome Database, BMRB, E. coli Metabolome Database and AOCS lipid library; and a comparison of chemical shifts to the literature, which was confirmed using 2D NMR spectra. Annotated spectra can be found in the supplementary materials (Supplementary Fig. 15). Metaboanalyst and KEGG were later used to identify key pathways that may be affected by these metabolites.

human red blood cells = experiment: Haemolysis assay; type: cell-based; details: human red blood cells in PBS, 1 h 37 °C, OD550, relative to 0.1% Triton-X-100
Procedure: Haemolysis was tested by incubating titrations of AMPs in PBS with freshly collected human red blood cells for 1 h at 37 °C. Control wells were treated with 0.1% Triton-X-100 to ensure complete lysis, or PBS-only to represent no lysis. Samples were spun down to remove non-lysed cells and the OD550 of the supernatant was measured using a Clariostar plate reader. The percentage of haemolysis was calculated as % haemolysis = (AP − AB)/(AC − AB) × 100, where AP is the absorbance value for a known peptide concentration, AC is the absorbance of the 0.1% Triton-X-100 control, AB is the absorbance of the PBS control. Data presented are averages and standard error from three biological replicate experiments.

CC(C)C[C@@H](NC(=O)[C@@H](Cc1ccc(O)cc1)NC(=O)[C@@H](Cc1c[nH]cn1)NC(=O)[C@H](NC(=O)[C@@H](CC(C)C)NC(=O)[C@@H](C)NC(=O)[C@@H](C)NC(=O)[C@@H](CCCNC(=N)N)NC(=O)CNC(=O)[C@H](NC(=O)[C@@H](Cc1c[nH]cn1)NC(=O)[C@@H](CCCNC(=N)N)NC(=O)CNC(=O)[C@H](NC(=O)[C@@H](Cc1c[nH]cn1)NC(=O)[C@@H](C)NC(=O)[C@@H](C)NC(=O)[C@@H](CCCNC(=N)N)NC(=O)[C@@H](CCCNC(=N)N)NC(=O)[C@@H](Cc1ccccc1)NC(=O)[C@@H](Cc1ccccc1)NC(=O)[C@@H](CO)NC(=O)CNC(=O)[C@@H](Cc1c[nH]c2ccccc12)NC(=O)CN)C(C)C)C(C)C)[C@H](C)O)C(N)=O [D-pleurocidin-KR] (H-G[dW]G[dS][dF][dF][dR][dR][dA][dA][dH][dV]G[dR][dH][dV]G[dR][dA][dA][dL][dT][dH][dY][dL]-NH2; N-terminus assumed)
levels of TNFα in BAL (TNFα): No effects | MIC, peptide concentration [1]: 0.5 µg/mL | Toxicity HEK293 (EC50 / IC50) (HEK293): (36.4 ± 4.3) µg/ml | fc 2-aminobutyrate (EMRSA-15): 0.991 | fc Acetate (EMRSA-15): 1.149 | fc Acetyl-Phosphocholine (1) (EMRSA-15): 0.9923 | fc Acetyl-Phosphocholine (2) (EMRSA-15): 1.003 | fc Adenosine (EMRSA-15): 1.125 | fc Alanine (EMRSA-15): 0.9478 | fc Aspartate (EMRSA-15): 0.8483 | fc Betaine (EMRSA-15): 0.9779 | fc Choline (EMRSA-15): 1.051 | fc Citrulline (EMRSA-15): 0.9363 | fc Glutamate (EMRSA-15): 0.896 | fc Glycerol (lipid headgroup) (1) (EMRSA-15): 0.9028 | fc Glycerol (lipid headgroup) (2) (EMRSA-15): 1.031 | fc Glycerol (lipid headgroup) (3) (EMRSA-15): 0.9777 | fc Isoleucine (EMRSA-15): 1.148 | fc Lactate (EMRSA-15): 1.293 | fc Leucine (EMRSA-15): 1.172 | fc Lipid -CH=CH- (EMRSA-15): 1.134 | fc Lipid-CH₃ (EMRSA-15): 1.116 | fc Lysine (EMRSA-15): 1.027 | fc N-acetyl-x (1) (EMRSA-15): 0.8941 | fc N-acetyl-x (2) (EMRSA-15): 1.036 | fc N-acetyl-x (3) (EMRSA-15): 0.9489 | fc Proline (EMRSA-15): 1.056 | fc Succinate (EMRSA-15): 0.8785 | fc Unassigned 1.47ppm (EMRSA-15): 0.8868 | fc Unassigned 3.4802ppm (EMRSA-15): 0.9293 | fc Unassigned 8.55ppm (EMRSA-15): 0.9285 | fc Uracil (EMRSA-15): 1.738 | fc Valine (EMRSA-15): 1.029 | fc ᴅ-alanine (LTA) (EMRSA-15): 1.157 | haemolysis at the highest concentration tested 400 µg/ml (human red blood cells): 50% | concentration at which 10% haemolysis is achieved (human red blood cells; three biological replicates): above 64 µg/ml and ~ 75 µg/ml
